Measured values reported in patent publication US20190152993A1, “Reversibly Switchable Surfactants and Methods of Use” (WARNER BABCOCK INSTITUTE FOR GREEN CHEMISTRY, LLC, priority 2016, published 2019).
Marks after values point to notes of the source that are not given here.

How the values were obtained:
[1] = Lifetimes (half-life) of the activated merocyanine surfactants in solvents; format: physicochemical; conditions: error limits 10-20%
Procedure: Lifetimes of the activated zwitterionic merocyanine isomers of compounds 4a, 4b, 4c, and 4e in several solvents were determined.
The spiropyran compound 4 was added to a solvent in a 1-cm quartz cuvette and the cuvette was irradiated with ultraviolet light at 365 nm for ˜60 seconds. […] Absorption spectra were recorded from 450 to 650 nm every 5 seconds over a 350-second observation time. The concentrations of the merocyanine were adjusted so that the initial t=0 absorbance at the absorption maximum (λmax) was in the range of 1-1.4. All kinetics experiments were done in triplicate once an appropriate spiropyran/merocyanine surfactant concentration was determined. The absorbances at λmax were normalized to the highest value, and the three data sets averaged to give the normalized absorbances as a function of time. If the normalized absorbance had dropped to at least 0.5 during the 350-s monitoring time, the half-life was taken as the time at which the normalized absorbance had reached 0.5.

[2] = Separate experiment: solubility of palmitic acid in hexanes with switchable surfactant activation; format: physicochemical; conditions: 1 mg/mL surfactant
Text: The second vial was exposed to 365-nm ultraviolet light that activated the surfactant; the solution turned magenta due to the color of the merocyanine.

[3] = in acetone, after 365 nm irradiation
[4] = in cyclohexane, after 365 nm irradiation
[5] = in ethanol, longer than 350 s monitoring, by extrapolation of exponential fit
[6] = in ethyl acetate, after 365 nm irradiation
[7] = in methanol, longer than 350 s monitoring, by extrapolation of exponential fit
[8] = in octanol, longer than 350 s monitoring, by extrapolation of exponential fit
[9] = in toluene, after 365 nm irradiation

SMILES | Merocyanine Half-life [1, 3] [s] | Merocyanine Half-life [1, 4] [s] | Merocyanine Half-life [1, 5] [s] | Merocyanine Half-life [1, 6] [s] | Merocyanine Half-life [1, 7] | Merocyanine Half-life [1, 8] [s] | Merocyanine Half-life [1, 9] [s] | reversibility after UV-treated solution placed in the dark ([2]; 53 mg/mL palmitic acid) | palmitic acid dissolved with activated surfactant ([2]; 53 mg/mL palmitic acid charged, 365-nm ultraviolet light) [mg/mL] | dissolution of palmitic acid with ground-state surfactant ([2]; 53 mg/mL palmitic acid charged, kept in the dark)
CCCCCCCCCCCCCCCCCC[N+]1=C(/C=C/c2cc([N+](=O)[O-])ccc2[O-])C(C)(C)c2ccccc21 [5e] | 114 | 40 | 1450 | 20 | 11000 s | 830 | 49 | – | – | –
CCCCCCCCCCCCCCCCCCN1c2ccccc2C(C)(C)C12C=Cc1cc([N+](=O)[O-])ccc1O2 (stereo not shown) [4e, 3′,3′-Dimethyl-6-nitro-1′-octadecylspiro[chromene-2,2′-indoline]] | – | – | – | – | – | – | – | precipitate began to form | 53 | not fully dissolved
C[N+]1=C(/C=C/c2cc([N+](=O)[O-])ccc2[O-])C(C)(C)c2ccccc21 [5a] | 103 | 14 | 1200 | 19 | 4900 s | 610 | 16 | – | – | –

The remaining lines, values ahead:

Merocyanine Half-life [1, 3] [s] | Merocyanine Half-life [1, 4] [s] | Merocyanine Half-life [1, 5] [s] | Merocyanine Half-life [1, 6] [s] | Merocyanine Half-life [1, 7] | Merocyanine Half-life [1, 8] [s] | Merocyanine Half-life [1, 9] [s] | reversibility after UV-treated solution placed in the dark ([2]; 53 mg/mL palmitic acid) | palmitic acid dissolved with activated surfactant ([2]; 53 mg/mL palmitic acid charged, 365-nm ultraviolet light) [mg/mL] | dissolution of palmitic acid with ground-state surfactant ([2]; 53 mg/mL palmitic acid charged, kept in the dark) | SMILES
153 | 40 | 1500 | 20 | >10^4‡ seconds | 610 | 38 | – | – | – | CCCCCCCC[N+]1=C(/C=C/c2cc([N+](=O)[O-])ccc2[O-])C(C)(C)c2ccccc21 [5c]
130 | 44 | 1300 | 23 | 23000 s | 610 | 32 | – | – | – | CCCC[N+]1=C(/C=C/c2cc([N+](=O)[O-])ccc2[O-])C(C)(C)c2ccccc21 [5b]
